Where two headings read alike, the source gives them in different places.

What is called IC50 is the concentration that inhibits the measured activity by half. Lower therefore signals inhibition by little substance.

One series deals with sciatic nerve. Kind of series: Conduction block anaesthesia in the rat, injection near sciatic nerve. The class given is in vivo. The conditions noted are these: for blockade of nerve conduction: injected near the sciatic nerve, hydrochloride. The protocol: Conduction block anaesthesia was produced in the rat using compound II [(Isopropyl 2-(4-2-piperidinoethoxy)-benzoyl)benzoate hydrochloride] according to the method of Traunt. (Traunt, A. P. Arch. Int. Phamacodyn. 115:483-497,1957).
The conduction block produced was of long duration and required a number of days for complete recovery. A dose of 20 mg/kg compound II blocked nerve conduction in the rat for about 33 days. Ten mg/kg of compound II blocked the nerve for 18±2 days (n=25). In comparison, 10 mg/kg of lignocaine, a standard local anesthetic, produced conduction block for only 0.086±0.01 days (n-10). […] This long lasting but reversible blockade of nerve conduction is of significant interest in the treatment of cancers, neuralgias and post-surgical states.

Another series concerns Porcine liver esterase. Kind of series: Enzymatic hydrolysis rates by porcine liver esterase. The format is in vitro ADME. As to conditions: 1 mM, pH 8.0, 37° C. As to the method: Porcine liver esterase (0.5 U=2 μg) was preincubated in 40 mM Tris-HCl buffer, pH 8.0, at 37° C. for 5 min. The reaction was initiated with the addition of the test compound (final concentration, 1 mM) in the final volume of 250 μl. Enzyme reaction was terminated at different time intervals by the addition of 60 μl of 1M acetic acid. The solution was made alkaline (pH 10.5) by adding 0.4M NaOH and the alkaline solution was rapidly extracted (three times) with 2.5 ml of chloroform. An aliquot of the aqueous supernatant was diluted with double distilled water and the absorbance was measured at 290 nm. Amount of test compound III (molar extinction=14,400) formed was calculated.

Another series relates to colonic motility. Kind of series: Motility of the large bowel (colonic motor complex) in conscious dogs. The class given is in vivo, dog. An excerpt: Male dogs (THG Tierhandelsgesellschaft Rodenbach, Hoe:BEAK (Beagle)) weighing 15-20 kg were used in all experiments.
(§1) At least 4 weeks prior the experiment the dogs had been equipped with miniaturized strain gage force transducers (T1-T2) (2×4 mm), sutured onto the gut at the locations mentioned below. The cables of the transducers were embedded into a cannula which carried the plug for external electric connection. This stainless steel cannula was implanted into the abdominal wall, close below the costal arch. Each transducer was connected to a measuring bridge. The signals were on-line stored using a HP 9835 A computer, thereby allowing later analysis of the data.
T1: Colon ascendens 10 cm aborafrom the ileoceval valve (ICV)
T2: Colon transversum 25 cm aborad from the ICV
18 hours prior to the experiment food was withdrawn from the animals, water ad libidum All experiments started between 08:00 and 09:00 am.
The following parameters were determined:
The duration of the cycle (min)
The duration of the colonic motor complex (CMC) (min)
The maximal height of the concentrations (AU: arbitrary units)
Data from the two recording sites (T1-T2) were pooled. […]
Statistical methods: For detection of significant differences (p<0.05) the unpaired t-test was used. Only significant differences were indicated by *.

The subject of another series is Guinea pig ileum. Kind of series: Antispasmodic activity in isolated guinea pig ileum (acetylcholine contraction). The class given is cell-based. As to conditions: for Duration of action: isolated guinea pig ileum. As to the method: Small intestines obtained from freshly sacrificed guinea pigs (weight range, 200-400 g) of either sex were cleaned and stored in tyrode solution. A piece of ileum was mounted in an organ bath containing tyrode solution at 37° C. and maintained at a tension of 0.5 to 1.0 g. The solution was continuously aerated with compressed air. After an initial equilibration period, a sub-maximal dose of acetylcholine required for measurable contraction was standardized. Tension changes were monitored using an isotonic strain gauge attached to the tissue and the responses were recorded on a strip chart recorder. Antispasmodic activity of test compounds at different concentrations was followed and the IC50, values were calculated from dose response curves.

Series [1] has as its system small intestine motility. Kind of series: Small intestinal motility in the conscious dog, phase III activity, intragastrical. The conditions noted are these: 5 mg/kg intragastrically. The format is in vivo.
Description: as §1, with “Male dogs (THG Tierhandelsgesellschaft Rodenbach, Hoe: BEAK (Beagle)) weighing 15-20 kg were used in all experiments. At” for “At”, “prior to” for “prior”, “(T1-T3)” for “(T1-T2)”, “on line” for “on-line”, “computer,” for “computer, thereby”
(§2) 18 hours prior to the experiment food was withdrawn from the animals, water ad libidum. All experiments started between 08:00 and 09:00 am.
(§3) The following motility parameters were determined:
(§4) The duration of the interdigestive migrating complex (IMC) (min) as a measure of phase III activity.
(§5) Test Compound II was given at doses of 0.2 and 0.5 mg/kg i.v. or 5 mg/kg i.g., dissolved in saline, in a volume of 1 ml/kg (i.v.) or 2 ml/kg (i.g.), n=3-6. Control n=26.

Series [2] concerns small intestine motility. Kind of series: Small intestinal motility in the conscious dog, phase I and II activity. The format is in vivo. The conditions noted are these: for rank order of potency: spontaneous motility of small intestine, conscious dog.
Description: as §1, with “Male dogs (THG Tierhandelsgesellschaft Rodenbach, Hoe: BEAK (Beagle)) weighing 15-20 kg were used in all experiments. At” for “At”, “prior to” for “prior”, “(T1-T3)” for “(T1-T2)”, “on line” for “on-line”, “computer,” for “computer, thereby”
as §2, §3
The integral under the concentration curves at 10 min intervals (mN×10min) as an index of phase I+II activity. The duration of drug action (min.)
as §4, §5
Reference substances: Buscopan, pitofenon.
Buscopan was given at doses of 0.3 and 1 mg/kg i.v., dissolved in saline, in a volume of 1 ml/kg, n=4-6. Pitofenone was given at doses of 1 mg/kg i.v., dissolved in saline, in a volume of 1 ml/kg, n=8.
1D50 -values were determined graphically.

For series [3] the following is noted: cited from earlier work.

As for `CCN(CC)CC(=O)Nc1c(C)cccc1C` [lignocaine], the “duration of nerve conduction block” value in the series with sciatic nerve (10 mg/kg near sciatic nerve) came to 0.086 ± 0.01 days.
For the compound `CC(C)OC(=O)c1ccccc1C(=O)c1ccc(OCCN2CCCCC2)cc1.Cl` [Test compound II, Isopropyl-2-[4-(2-piperidino-ethoxy)-benzoyl]-benzoate hydrochloride], the “μmol test compound III formed per mg protein per ml” value in the series on Porcine liver esterase (time 0.0 hours) is 0.00 μmol per mg protein per ml; in the series on Porcine liver esterase (time 0.5 hours), 0.05 μmol per mg protein per ml; in the series on Porcine liver esterase (time 2.0 hours), 0.10 μmol per mg protein per ml; in the series on Porcine liver esterase (time 3.5 hours), 0.10 μmol per mg protein per ml. In the series with colonic motility (1 mg/kg i.g.), the “effect on colonic motility” value is reported as “uneffective”. Further, the “inhibition of colonic motility” value with colonic motility (4 mg/kg i.g. (so in the source)) is “inhibited colonic motility (CMC in the conscious dog completely”. Moreover, in the series on Guinea pig ileum, the Duration of action was more than 7.0 min. Also, the “duration of nerve conduction block” value was 18 ± 2 days with sciatic nerve (10 mg/kg near sciatic nerve) and “about 33 days” in the series on sciatic nerve (20 mg/kg near sciatic nerve). In addition, the entries for the “blockade of nerve conduction” value in the series with sciatic nerve (listed as Compound II) and in the series with sciatic nerve (listed as compound II) were “dose-dependent blockade of nerve conduction” and “reversible blockade of nerve conduction lasting for hours to days”, respectively. For the same compound, the “inhibition of phase III activity” value in the series with small intestine motility [1] was “a pronounced inhibition of phase III activity”. In addition, the “duration of inhibitory effect” value in the series with small intestine motility [2] (0.5 mg/kg i.v.) is on record as “approximately one”. For the same compound, the “rank order of potency” value in the series with small intestine motility [2] was “Test Compound II>buscopan>pitofenon”.
Turning to `COC(=O)c1ccccc1C(=O)c1ccc(OCCN2CCCCC2)cc1.Cl` [Test compound I, Methyl-2-[4-(2-piperidino-ethoxy)-benzoyl]-benzoate hydrochloride], the “μmol test compound III formed per mg protein per ml” value in the series with Porcine liver esterase (time 0.0 hours) is given as 0.00 μmol per mg protein per ml; in the series with Porcine liver esterase (time 0.5 hours) it was 0.50 μmol per mg protein per ml; with Porcine liver esterase (time 2.0 hours) it was 1.62 μmol per mg protein per ml; in the series with Porcine liver esterase (time 3.5 hours) it was 2.78 μmol per mg protein per ml. In the series with Guinea pig ileum (Cavia porcellus, acetylcholine contraction, isolated ileum, 37° C.), this compound came in with an IC50 of 1 µg/mL. In the series on Guinea pig ileum, this compound came in with a Duration of action of less than 1.5 min. For the same compound, the antispasmodic activity result is “potent antispasmodic activity” in series [3] (administered intravenously) and “considerably reduced” in series [3] (administered orally). Besides, in series [3] (oral), the “metabolism of methyl ester to the corresponding acid” value is on record as “rapid metabolism of the methyl ester to the corresponding acid”. Moreover, the “rank order of potency” value with small intestine motility [2] is “Test Compound II>buscopan>pitofenon”.
Take `CCCC[N+]1(C)[C@@H]2C[C@@H](OC(=O)[C@H](CO)c3ccccc3)C[C@H]1[C@@H]1O[C@@H]12` (some centres unmarked) [Buscopan]: in the series with colonic motility (3 mg/kg intragastrically), the “Max. height of CMC” value was 35 ± 17 AU. Moreover, the “effect on colonic motility” value with colonic motility (3 and 10 mg/kg i.g.) was “no effect on colonic motility”. In the series with small intestine motility [2] (1 mg/kg i.v., until postdrug values reached 90% or more of predrug), this compound yielded a Duration of action of 30 min. Further, the “rank order of potency” value in the series on small intestine motility [2] is “Test Compound II>buscopan>pitofenon”.

The record behind these values is patent US5821252A, “Method of blocking nerve conduction by treatment with branched-chain esters of 2-[4-(2-piperidine-ethoxy)-benzoyl]-benzoic acid and pharmaceutically acceptable salts thereof” (priority 1988, dated 1998).
